Blank lines part the entries; values can stand above or below the compound they belong to.
Assays:
[1] = test system: SKH1-hrBR or hairless mouse; assay: topical skin irritation test in hairless mice; type: in vivo; conditions: topical in acetone, once daily days 1 through 5, mean ±SD, range 0-21
Text: Mice were housed individually throughout the dosing period.
Doses are disclosed as nmol/25 g.
The grading scale used is as follows:
Values can range from 0-9.
Values can range from 0-8.

[2] = molecular target: T1, RARγ (Homo sapiens, UniProt P13631); assay: ligand binding assay; conditions: last line of the stacked cell, read-out: RAR Kd γ
T1 sequence (P13631 1-454): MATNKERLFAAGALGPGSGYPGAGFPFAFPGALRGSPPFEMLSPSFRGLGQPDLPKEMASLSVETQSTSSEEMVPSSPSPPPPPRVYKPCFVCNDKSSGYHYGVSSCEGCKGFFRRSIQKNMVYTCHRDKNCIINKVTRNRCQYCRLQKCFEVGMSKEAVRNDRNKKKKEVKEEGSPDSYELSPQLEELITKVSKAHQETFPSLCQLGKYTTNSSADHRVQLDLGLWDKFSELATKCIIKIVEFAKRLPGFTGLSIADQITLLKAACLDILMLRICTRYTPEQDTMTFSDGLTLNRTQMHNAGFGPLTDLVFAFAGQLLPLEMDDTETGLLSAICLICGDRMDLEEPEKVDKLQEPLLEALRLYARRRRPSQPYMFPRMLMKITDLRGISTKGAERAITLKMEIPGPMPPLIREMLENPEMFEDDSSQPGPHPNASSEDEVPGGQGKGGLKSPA
Text: (§1) Assays described below measure the ability of a compound to bind to, and/or activate various retinoid receptor subtypes. When in these assays a compound binds to a given receptor subtype and activates the transcription of a reporter gene through that subtype, then the compound is considered an agonist of that receptor subtype. […] In the below described assays the ability of the compounds to bind to RARα, RARβ, RARγ, RXRα, RXRβ and RXRγ receptors, and the ability or inability of the compounds to activate transcription of a reporter gene through these receptor subtypes can be tested.
(§2) The results obtained in this assay are expressed in EC50 numbers, as they are also in the chimeric receptor transactivation assay. The results of ligand binding assay are expressed in Kd numbers.

[3] = molecular target: T2, RARβ (Homo sapiens, UniProt P10826); assay: ligand binding assay; conditions: last line of the stacked cell, read-out: RAR Kd β
T2 sequence (P10826 1-455): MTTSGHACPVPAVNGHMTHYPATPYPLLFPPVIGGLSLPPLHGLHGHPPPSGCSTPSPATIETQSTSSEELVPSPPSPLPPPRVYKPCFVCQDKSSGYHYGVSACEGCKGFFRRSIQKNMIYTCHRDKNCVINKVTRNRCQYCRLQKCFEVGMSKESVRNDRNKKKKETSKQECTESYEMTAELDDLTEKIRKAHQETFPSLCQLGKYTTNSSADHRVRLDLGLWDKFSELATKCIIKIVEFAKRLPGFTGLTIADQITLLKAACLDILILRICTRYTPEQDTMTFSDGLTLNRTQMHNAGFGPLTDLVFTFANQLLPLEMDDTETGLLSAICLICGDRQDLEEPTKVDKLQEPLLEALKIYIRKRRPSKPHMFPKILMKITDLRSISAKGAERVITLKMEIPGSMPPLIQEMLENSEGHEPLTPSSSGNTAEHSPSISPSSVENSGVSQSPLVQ
Text: as §1, §2

Structure (SMILES): CC1(C)CCC(=O)c2ccc(C#Cc3ccc(CC(=O)O)cc3)cc21 [Compound 5, 4-[(8,8-Dimethyl-5-oxo-5,6,7,8-tetrahydro-naphthalene-2-yl-ethynyl)-phenyl]-acetic acid]
- Cutaneous Toxicity Score (Blackjack Score) ([1]; 100 nmole (nmol/25 g)): 0
- Cutaneous Toxicity Score (Blackjack Score) ([1]; 1000 nmole (nmol/25 g)): 6 ± 3

Structure (SMILES): CN(C1CC1)C1CCC(C)(C)c2cc(C#Cc3ccc(CC(=O)O)cc3)ccc21 (stereo not shown) [Compound 8, 4-[(5-(Cyclopropyl-methyl-amino)-8,8-dimethyl-5,6,7,8-tetrahydro-naphthalene-2-yl-ethynyl)-phenyl]-acetic acid]
- Cutaneous Toxicity Score (Blackjack Score) ([1]; 100 nmole (nmol/25 g)): 5 ± 2
- Cutaneous Toxicity Score (Blackjack Score) ([1]; 300 nmole (nmol/25 g)): 8 ± 3
- Cutaneous Toxicity Score (Blackjack Score) ([1]; 1000 nmole (nmol/25 g)): 12 ± 1

Structure (SMILES): CC1(C)CCC(=O)c2ccc(C#Cc3ccc(CC(=O)O)c(F)c3)cc21 [Compound 15, [2-Fluoro-4-(8,8-dimethyl-5-oxo-5,6,7,8-tetrahydro-naphthalene-2-yl-ethynyl)phenyl]-acetic acid]
- Cutaneous Toxicity Score (Blackjack Score) ([1]; 100 nmole (nmol/25 g)): 1 ± 1
- Cutaneous Toxicity Score (Blackjack Score) ([1]; 1000 nmole (nmol/25 g)): 5 ± 2

Structure (SMILES): CN(C1CC1)C1CCC(C)(C)c2cc(C#Cc3ccc(CC(=O)O)c(F)c3)ccc21 (stereo not shown) [Compound 18, [4-(5-(Cyclopropyl-methyl-amino)-8,8-dimethyl-5,6,7,8-tetrahydro-naphthalene-2-yl-ethynyl)-2-fluoro-phenyl]-acetic acid]
- Cutaneous Toxicity Score (Blackjack Score) ([1]; 100 nmole (nmol/25 g)): 0 ± 0
- Cutaneous Toxicity Score (Blackjack Score) ([1]; 300 nmole (nmol/25 g)): 5 ± 2
- Cutaneous Toxicity Score (Blackjack Score) ([1]; 1000 nmole (nmol/25 g)): 10 ± 2

Structure (SMILES): CC1(C)CN(C2CC2)Cc2ccc(C#Cc3ccc(CC(=O)O)c(F)c3)cc21 [Compound 22, [4-(2-Cyclopropyl-4,4-dimethyl-1,2,3,4-tetrahydro-isoquinolin-6-yl-ethynyl)-2-fluoro-phenyl]-acetic acid]
- Cutaneous Toxicity Score (Blackjack Score) ([1]; 100 nmole (nmol/25 g)): 0 ± 0
- Cutaneous Toxicity Score (Blackjack Score) ([1]; 300 nmole (nmol/25 g)): 0 ± 0
- Cutaneous Toxicity Score (Blackjack Score) ([1]; 1000 nmole (nmol/25 g)): 1 ± 1

Structure (SMILES): CC1(C)CC(C)(C)c2cc(C#Cc3ccc(CC(=O)O)cc3)cc(C3CC3)c2O1 [Compound 36, [4-(8-Cyclopropyl-2,2,4,4-tetramethyl-chroman-6-yl-ethynyl)phenyl]acetic acid]
- Cutaneous Toxicity Score (Blackjack Score) ([1]; 100 nmole (nmol/25 g)): 1 ± 1
- Cutaneous Toxicity Score (Blackjack Score) ([1]; 1000 nmole (nmol/25 g)): 11 ± 0

Structure (SMILES): CC1(C)CC(C)(C)c2cc(C#Cc3ccc(CC(=O)O)c(F)c3)cc(C3CC3)c2O1 [Compound 38, [4-(8-Cyclopropyl-2,2,4,4-tetramethyl-chroman-6-yl-ethynyl)-2-fluorophenyl] acetic acid]
- Cutaneous Toxicity Score (Blackjack Score) ([1]; 100 nmole (nmol/25 g)): 1 ± 1
- Cutaneous Toxicity Score (Blackjack Score) ([1]; 1000 nmole (nmol/25 g)): 10 ± 1

- Kd [2]: > 10 µM
- Kd [3]: > 10 µM
Structure (SMILES): CC1(C)CC(C)(C)c2cc(C(=O)Oc3ccc(CC(=O)O)cc3)ccc2O1 [Compound 46, 2,2,4,4-Tetramethyl-chroman-6-carboxylic acid 4-(carboxymethyl)phenyl ester]

Structure (SMILES): CC1(C)CC2(CC2)Oc2c(C3CC3)cc(C#Cc3ccc(CC(=O)O)cc3)cc21 [Compound 48, Benzeneacetic acid, 4-[(8-cyclopropyl-3,4-dihydro-4,4-dimethylspiro[2H-1-benzopyran-2,1′-cyclopropane]-6-yl)ethynyl]-]
- Cutaneous Toxicity Score (Blackjack Score) ([1]; 100 nmole (nmol/25 g)): 1 ± 1
- Cutaneous Toxicity Score (Blackjack Score) ([1]; 300 nmole (nmol/25 g)): 3 ± 1
- Cutaneous Toxicity Score (Blackjack Score) ([1]; 1000 nmole (nmol/25 g)): 7 ± 2

Structure (SMILES): CC1(C)CC2(CC2)Oc2c(C3CC3)cc(C#Cc3ccc(CC(=O)O)c(F)c3)cc21 [Compound 50]
- Cutaneous Toxicity Score (Blackjack Score) ([1]; 100 nmole (nmol/25 g)): 1 ± 0
- Cutaneous Toxicity Score (Blackjack Score) ([1]; 300 nmole (nmol/25 g)): 3 ± 2
- Cutaneous Toxicity Score (Blackjack Score) ([1]; 1000 nmole (nmol/25 g)): 8 ± 2

Structure (SMILES): CC1(C)CC2(CC2)Oc2c(C3CC3)cc(C(=O)Oc3ccc(CC(=O)O)cc3)cc21 [Compound 58, Spiro[2H-1-benzopyran-2,1′-cyclopropane]-6-carboxylic acid, 8-cyclopropyl-3,4-dihydro-4,4-dimethyl-, 4-(carboxymethyl)phenyl ester]
- Cutaneous Toxicity Score (Blackjack Score) ([1]; 100 nmole (nmol/25 g)): 0 ± 0
- Cutaneous Toxicity Score (Blackjack Score) ([1]; 300 nmole (nmol/25 g)): 0 ± 0
- Cutaneous Toxicity Score (Blackjack Score) ([1]; 1000 nmole (nmol/25 g)): 0 ± 0

- Kd [2]: > 10 µM
Structure (SMILES): CCCN(CCC)C1(c2ccc(C#Cc3ccc(C(=O)O)cc3)cc2)CC1 [Compound 110, 4-[4-(1-Dipropylamino-cyclopropyl)-phenylethynyl]-benzoic acid]

- Kd [3]: > 10 µM
Structure (SMILES): O=C(O)c1ccc(C#Cc2ccc(C3(N(Cc4ccccc4)Cc4ccccc4)CC3)cc2)cc1 [Compound 114, 4-[4-(1-Dibenzylamino-cyclopropyl)-phenylethynyl]-benzoic acid]

- Kd [3]: > 100 µM
Structure (SMILES): Cc1cc(C#Cc2ccc(CC(=O)O)cc2)ccc1Cn1ccnc1 [Compound 121, [4-(4-Imidazol-1-yl-methyl-3-methyl-phenylethynyl)-phenyl]-acetic acid]

Structure (SMILES): CCN(Cc1ccc(C#Cc2ccc(CC(=O)O)cc2)cc1C)C1CC1 [Compound 131, (4-{4-[(Cyclopropyl-ethyl-amino)-methyl]-3-methyl-phenylethynyl}-phenyl)-acetic acid]
- Cutaneous Toxicity Score (Blackjack Score) ([1]; 100 nmole (nmol/25 g)): 1 ± 1
- Cutaneous Toxicity Score (Blackjack Score) ([1]; 300 nmole (nmol/25 g)): 0 ± 1
- Cutaneous Toxicity Score (Blackjack Score) ([1]; 1000 nmole (nmol/25 g)): 1 ± 1

Structure (SMILES): CC1(C)CCC(n2ccnc2)c2ccc(C#Cc3ccc(CC(=O)O)cc3)cc21 (stereo not shown) [Compound 137, [4-(5-Imidazol-1-yl-8,8-dimethyl-5,6,7,8-tetrahydro-naphthalen-2-yl-ethynyl)-phenyl]-acetic acid]
- Cutaneous Toxicity Score (Blackjack Score) ([1]; 100 nmole (nmol/25 g)): 1 ± 1
- Cutaneous Toxicity Score (Blackjack Score) ([1]; 300 nmole (nmol/25 g)): 1 ± 1
- Cutaneous Toxicity Score (Blackjack Score) ([1]; 1000 nmole (nmol/25 g)): 5 ± 2
